As a reminder, the IC50 is the midpoint of a concentration-inhibition curve.

The target in the experiment is SIK2 (Homo sapiens, UniProt Q9H0K1). The experiment in a line: SIK2 Enzymatic Assay High Version 2 (High ATP). Format: biochemical. The conditions noted are these: enzyme 6 nM, 6 mM ATP and 400 μM HDAC5tide (each 2× final concentration); 30 minutes pre-incubation, 2 hours; ADP-Glo Max luminescence; read-out: SIK2 high ATP IC50 (μM) (Test Example 2). As to the method: All steps were performed at room temperature. Compounds were pre-plated onto an assay plate using an Echo acoustic dispenser (Labcyte, E550 or E555) at 80 nL per well. Enzyme prepared in assay buffer at 6 nM (2× final concentration) was added at 4 μL per well using the Multidrop Combi (Thermo Fisher—used for all additions in this assay) to the assay plate, spun for 1 min at 1000 rpm (Allegra 6KR Beckman Coulter centrifuge), and incubated with compound for 30 minutes. Assay buffer containing 6 mM ATP and 400 μM HDAC5tide (2× of final concentration for each substrate) was added at 4 μL per well to the assay plate and then spun as above and incubated for 2 hours. […] ADP-Glo Max Reagent (prepared and aliquoted as per manufacturer instructions) was then added at 8 μL per well, spun and incubated for 2 hours. ADP-Glo Max Detection (prepared and aliquoted as per manufacturer instructions) was added at 8 μL per well to the assay plate, which was spun and incubated for 1 hour. The plate is then read on the Pherastar (BMG Labtech) using a luminescence read. Gain is set between 2200-2500.
Background: ADP-Glo first removes unused ATP, then detects ADP through luciferase.

Chain of SIK2 (Q9H0K1 whole entry, species assumed): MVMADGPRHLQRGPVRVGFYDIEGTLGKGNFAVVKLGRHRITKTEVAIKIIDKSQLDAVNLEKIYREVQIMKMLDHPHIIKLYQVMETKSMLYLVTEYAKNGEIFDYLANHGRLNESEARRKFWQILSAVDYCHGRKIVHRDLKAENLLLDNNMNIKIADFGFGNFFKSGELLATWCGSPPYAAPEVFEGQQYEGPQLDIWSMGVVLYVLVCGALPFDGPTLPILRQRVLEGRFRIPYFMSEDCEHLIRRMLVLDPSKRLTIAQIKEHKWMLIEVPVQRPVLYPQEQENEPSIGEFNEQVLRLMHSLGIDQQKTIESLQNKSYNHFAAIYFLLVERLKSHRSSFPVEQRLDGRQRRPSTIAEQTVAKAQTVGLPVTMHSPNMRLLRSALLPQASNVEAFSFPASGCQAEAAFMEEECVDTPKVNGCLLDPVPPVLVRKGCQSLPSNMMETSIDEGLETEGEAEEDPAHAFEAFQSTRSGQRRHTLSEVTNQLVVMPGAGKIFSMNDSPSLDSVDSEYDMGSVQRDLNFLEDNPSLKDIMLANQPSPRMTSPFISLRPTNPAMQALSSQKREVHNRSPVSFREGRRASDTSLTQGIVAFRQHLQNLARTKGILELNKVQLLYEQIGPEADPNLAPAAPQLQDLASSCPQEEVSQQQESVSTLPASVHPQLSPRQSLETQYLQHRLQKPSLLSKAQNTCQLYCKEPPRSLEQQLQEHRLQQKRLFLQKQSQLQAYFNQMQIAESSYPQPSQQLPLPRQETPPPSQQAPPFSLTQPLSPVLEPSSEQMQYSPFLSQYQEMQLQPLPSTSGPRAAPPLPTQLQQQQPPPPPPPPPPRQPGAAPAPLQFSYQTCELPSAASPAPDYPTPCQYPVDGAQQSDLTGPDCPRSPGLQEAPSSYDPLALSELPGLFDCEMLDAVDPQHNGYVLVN

On to `Cc1cc(-c2ccn3nc(NC(=O)C4CC4)cc3c2)c(OC[C@@H](O)C2CCCCC2)cn1` (single isomer, unassigned) [Example 197, (*S)—N-(5-(5-(2-cyclohexyl-2-hydroxyethoxy)-2-methylpyridin-4-yl)pyrazolo[1,5-a]pyridin-2-yl)cyclopropanecarboxamide], for which the IC50 is 0.0195 µM.
For `Cc1cc(-c2ccn3nc(Nc4cc(C)nc(C)n4)cc3c2)c(OC[C@@]2(O)CCOC2)cn1` (single isomer, unassigned) [Example 203, (*R)-3-(((4-(2-((2,6-dimethylpyrimidin-4-yl)amino)pyrazolo[1,5-a]pyridin-5-yl)-6-methylpyridin-3-yl)oxy)methyl)tetrahydrofuran-3-ol], the IC50 was 0.0469 µM.
The same measure for `Cc1cc(-c2ccn3nc(Nc4cc(C)nc(C)n4)cc3c2)c(OC[C@H]2CCO[C@H]2C)cn1` (single isomer, unassigned) [Example 206, N-(2,6-dimethylpyrimidin-4-yl)-5-(2-methyl-5-(((2*S,3*R)-2-methyltetrahydrofuran-3-yl)methoxy)pyridin-4-yl)pyrazolo[1,5-a]pyridin-2-amine]: 0.0175 µM; for `Cc1cc(-c2ccn3nc(Nc4cc(C)nc(C)n4)cc3c2)c(OC[C@@H]2CCO[C@@H]2C)cn1` (single isomer, unassigned) [Example 207, N-(2,6-dimethylpyrimidin-4-yl)-5-(2-methyl-5-(((2*R,3*S)-2-methyltetrahydrofuran-3-yl)methoxy)pyridin-4-yl)pyrazolo[1,5-a]pyridin-2-amine]: 0.00878 µM.
Turning to `Cc1cc(-c2ccn3nc(NC(=O)C4CC4)cc3c2)c(OCC2(C#N)CCNC2)cn1` (single isomer, unassigned) [Example 210, (*S)—N-[5-[5-[(3-cyanopyrrolidin-3-yl)methoxy]-2-methyl-4-pyridyl]pyrazolo[1,5-a]pyridin-2-yl]cyclopropanecarboxamide], the IC50 turned out to be 0.00307 µM.
Regarding `Cc1cc(-c2ccn3nc(NC(=O)C4CC4)cc3c2)c(OC[C@]2(C#N)CCNC2)cn1` (single isomer, unassigned) [Example 211, (*R)—N-[5-[5-[[(3R)-3-cyanopyrrolidin-3-yl]methoxy]-2-methyl-4-pyridyl]pyrazolo[1,5-a]pyridin-2-yl]cyclopropanecarboxamide], the IC50 is 0.013 µM.
With `Cc1cc(-c2ccn3nc(NC(=O)C4CC4)cc3c2)c(OC[C@@]2(C#N)CCN(C)C2)cn1` (single isomer, unassigned) [Example 212, (*S)—N-[5-[5-[(3-cyano-1-methyl-pyrrolidin-3-yl)methoxy]-2-methyl-4-pyridyl]pyrazolo[1,5-a]pyridin-2-yl]cyclopropanecarboxamide], the IC50 came to 0.0472 µM.
As for `Cc1cc(-c2ccn3nc(NC(=O)C4CC4)cc3c2)c(OC[C@]2(C#N)CCN(C)C2)cn1` (single isomer, unassigned) [Example 213, (*R)—N-[5-[5-[(3-cyano-1-methyl-pyrrolidin-3-yl)methoxy]-2-methyl-4-pyridyl]pyrazolo[1,5-a]pyridin-2-yl]cyclopropanecarboxamide], the IC50 worked out at 0.0505 µM.
On to `CO[C@]1(COc2cnc(C)cc2-c2ccn3nc(NC(=O)C4CC4)cc3c2)CCNC1` (single isomer, unassigned) [Example 214, (*R)—N-[5-[5-[(3-methoxypyrrolidin-3-yl)methoxy]-2-methyl-4-pyridyl]pyrazolo[1,5-a]pyridin-2-yl]cyclopropanecarboxamide], for which the IC50 came to 0.0324 µM.
As for `CO[C@@]1(COc2cnc(C)cc2-c2ccn3nc(NC(=O)C4CC4)cc3c2)CCNC1` (single isomer, unassigned) [Example 215, (*S)—N-[5-[5-[(3-methoxypyrrolidin-3-yl)methoxy]-2-methyl-4-pyridyl]pyrazolo[1,5-a]pyridin-2-yl]cyclopropanecarboxamide], the IC50 is 0.0037 µM.
For `Cc1cc(-c2ccn3nc(Nc4cc(C)nc(C)n4)cc3c2)c(OC[C@@]2(O)CCCOC2)cn1` (single isomer, unassigned) [Example 216, (*R)-3-[[4-[2-[(2,6-dimethylpyrimidin-4-yl)amino]pyrazolo[1,5-a]pyridin-5-yl]-6-methyl-3-pyridyl]oxymethyl]tetrahydropyran-3-ol], the IC50 amounted to 0.0311 µM.
As for `Cc1cc(-c2ccn3nc(Nc4cc(C)nc(C)n4)cc3c2)c(OC[C@@H]2CC3(CCCC3)CO2)cn1` (single isomer, unassigned) [Example 219, (*S)—N-(2,6-dimethylpyrimidin-4-yl)-5-[2-methyl-5-(8-oxaspiro[4.4]nonan-7-ylmethoxy)-4-pyridyl]pyrazolo[1,5-a]pyridin-2-amine], the IC50 is 0.0497 µM.
For the compound `Cc1cc(-c2ccn3nc(Nc4cc(C)nc(C)n4)cc3c2)c(OC[C@@H]2CC3(CCC3)CO2)cn1` (single isomer, unassigned) [Example 220, (*S)-5-(5-((6-oxaspiro[3.4]octan-7-yl)methoxy)-2-methylpyridin-4-yl)-N-(2,6-dimethylpyrimidin-4-yl)pyrazolo[1,5-a]pyridin-2-amine], the IC50 was determined as 0.0142 µM.
Take `Cc1cc(-c2ccn3nc(NC(=O)C4CC4)cc3c2)c(OCC2(O)CCNC2)cn1` (single isomer, unassigned) [Example 222, (*S)—N-[5-[5-[(3-hydroxypyrrolidin-3-yl)methoxy]-2-methyl-4-pyridyl]pyrazolo[1,5-a]pyridin-2-yl]cyclopropanecarboxamide]: the IC50 was determined as 0.0119 µM.
Regarding `Cc1cc(-c2ccn3nc(NC(=O)C4CC4)cc3c2)c(OCC2(O)CCNC2)cn1` (single isomer, unassigned) [Example 223, (*R)—N-[5-[5-[(3-hydroxypyrrolidin-3-yl)methoxy]-2-methyl-4-pyridyl]pyrazolo[1,5-a]pyridin-2-yl]cyclopropanecarboxamide], the IC50 is 0.0278 µM.
With `Cc1cc(-c2ccn3nc(Nc4cc(C)nc(C)n4)cc3c2)c(OC[C@@H]2CCC3(CCCC3)O2)cn1` (single isomer, unassigned) [Example 230, (*S)—N-(2,6-dimethylpyrimidin-4-yl)-5-[2-methyl-5-(9-oxaspiro[4.4]nonan-8-ylmethoxy)-4-pyridyl]pyrazolo[1,5-a]pyridin-2-amine], the IC50 came out at 0.0377 µM.
With `Cc1cc(-c2ccn3nc(Nc4cc(C)nc(C)n4)cc3c2)c(OC[C@H]2CCC3(CCCC3)O2)cn1` (single isomer, unassigned) [Example 231, (*R)—N-(2,6-dimethylpyrimidin-4-yl)-5-[2-methyl-5-(9-oxaspiro[4.4]nonan-8-ylmethoxy)-4-pyridyl]pyrazolo[1,5-a]pyridin-2-amine], the IC50 came to 0.00839 µM.
As for `Cc1cc(-c2ccn3nc(Nc4cc(C)nc(C)n4)cc3c2)c(OC[C@]2(C)CCCO2)cn1` (single isomer, unassigned) [Example 232, (*S)—N-(2,6-dimethylpyrimidin-4-yl)-5-[2-methyl-5-[(2-methyltetrahydrofuran-2-yl)methoxy]-4-pyridyl]pyrazolo[1,5-a]pyridin-2-amine], the IC50 was found to be 0.0245 µM.
Turning to `Cc1cc(-c2ccn3nc(Nc4cc(C)nc(C)n4)cc3c2)c(OC[C@H]2CC3(CCCC3)CO2)cn1` (single isomer, unassigned) [Example 258, (*R)—N-(2,6-dimethylpyrimidin-4-yl)-5-[2-methyl-5-(8-oxaspiro[4.4]nonan-7-ylmethoxy)-4-pyridyl]pyrazolo[1,5-a]pyridin-2-amine], the IC50 turned out to be 0.153 µM.

The record behind these values is patent publication US20240158392A1 (Janssen Biotech, Inc., priority 2021, published 2024).
